According to patent US12186317B2, “Inhibitors of alpha-amino-beta-carboxymuconic acid semialdehyde decarboxylase” (TES Pharma S.r.l., priority 2018, dated 2025):

Target: T1, hACMSD (ACMSD1) (Homo sapiens, UniProt Q8TDX5)
T1 construct: made in house; host or cells: Pichia pastoris
Assay: Determination of ACMSD1 inhibition, spectrophotometrical in vitro assay (conversion of 3OH-anthranilic acid into ACMS)
Type: biochemical
Conditions: HAA concentration of 10 μM; recombinant ACMSD1 from Pichia pastoris; 25° C.; absorbance at 360 nm
Procedure: The activity of compounds as inhibitors of ACMSD1 is determined in a spectrophotometrical in vitro assay. The pre-assay mixture is incubated and a compound of Formula (I) or (II), or a pharmaceutically acceptable salt thereof, and ACMSD1 solution is then added. The effect of ACMS concentration on the enzyme activity is investigated by varying 3-hydroxyanthranilic acid (30H-HA) concentration in the pre-assay mixture. Kinetic parameters are calculated from the initial velocity data using a Lineweaver-Burk plot.
The pre-assay mixture consisting of 3-hydroxyanthranilic acid (30H-HA), 3-hydroxyanthranilic acid, 3,4-diOxygenase (HAO), and a dialyzed crude extract of E. coli BL21 (DE3) cells expressing the recombinant enzyme, was incubated at 25° C. with monitoring of the increase in absorbance at 360 nm due to the formation of ACMS from 30H-HA. After the reaction was completed within ˜2 mins, an aliquot of ACMSD1 solution (prepared and purified from Pichia pastoris overexpressing the recombinant enzyme) was added, and the decrease in absorbance at 360 nm was followed at 15 second intervals. The effect of ACMS concentration on the enzyme activity was investigated by varying 30H-HA concentration from 2 to 20 μM. Kinetic parameters were calculated from the initial velocity data by using the Lineweaver-Burk plot.
The rate of the decrease in absorbance caused by ACMSD1 was calculated by subtracting that of the control reaction mixture without ACMSD from that described above. One unit of ACMSD activity was indicated as the amount of enzyme that converts 1 mmol of ACMS per minute at 25° C.
The enzymatic activity was determined at a HAA concentration of 10 μM in the presence of the compounds in Table 1 below. […] In Table 1, A is <0.1 μM; B is 0.1 to 1 μM; C is 1 to 10 μM; and D is >10 μM.

T1 sequence (Q8TDX5 whole entry): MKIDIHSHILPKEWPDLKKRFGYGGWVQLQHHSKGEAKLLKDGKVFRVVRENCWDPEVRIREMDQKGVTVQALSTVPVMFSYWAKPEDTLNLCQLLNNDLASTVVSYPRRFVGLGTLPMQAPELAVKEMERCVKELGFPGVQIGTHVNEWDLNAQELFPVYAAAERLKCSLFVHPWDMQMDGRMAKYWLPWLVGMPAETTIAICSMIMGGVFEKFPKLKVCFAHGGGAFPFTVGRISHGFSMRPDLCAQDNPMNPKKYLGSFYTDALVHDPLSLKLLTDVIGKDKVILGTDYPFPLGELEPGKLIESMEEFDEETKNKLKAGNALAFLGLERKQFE

SMILES	IC50
N#Cc1c(-c2cccs2)nc(SCc2cccc(CC(=O)O)c2)nc1N1CCNCC1 [I-16, [3-(5-Cyano-4-piperazin-1-yl-6-thiophen-2-yl-pyrimidin-2-ylsulfanylmethyl)-phenyl]-acetic acid]	> 10 µM
N#Cc1c(N)nc(SCc2cccc(CC(=O)O)c2)nc1-c1cccs1 [I-7, [3-(4-Amino-5-cyano-6-thiophen-2-yl-pyrimidin-2-ylsulfanylmethyl)-phenyl]-acetic acid]	0.1 to 1 µM
N#Cc1c(SCc2cccc(CC(=O)O)c2)[nH]c(=O)c(C#N)c1-c1cccs1 [I-21, [3-(3,5-Dicyano-6-oxo-4-thiophen-2-yl-1,6-dihydro-pyridin-2-ylsulfanylmethyl)-phenyl]-acetic acid]	< 0.1 µM
O=c1cc(C(F)(F)F)nc(SCc2nnn[nH]2)[nH]1 [I-26, 2-(1H-Tetrazol-5-ylmethylsulfanyl)-6-trifluoromethyl-3H-pyrimidin-4-one]	< 0.1 µM
N#CCc1cccc(CSc2nc(-c3cccs3)c(C#N)c(=O)[nH]2)c1 [I-13, 2-(3-Cyanomethyl-benzylsulfanyl)-6-oxo-4-thiophen-2-yl-1,6-dihydro-pyrimidine-5-carbonitrile]	1 to 10 µM
N#Cc1c(-c2cccs2)cc(=O)[nH]c1SCc1cccc(CC(=O)O)c1 [I-20, [3-(3-Cyano-6-oxo-4-thiophen-2-yl-1,6-dihydro-pyridin-2-ylsulfanylmethyl)-phenyl]-acetic acid]	< 0.1 µM
CNc1nc(SCc2cccc(CC(=O)O)c2)nc(-c2cccs2)c1C#N [I-9, [3-(5-Cyano-4-methylamino-6-thiophen-2-yl-pyrimidin-2-ylsulfanylmethyl)-phenyl]-acetic acid]	0.1 to 1 µM
N#Cc1c(-c2cccs2)nc(SCc2cccc(C(N)=O)c2)[nH]c1=O [I-2, 3-(5-Cyano-6-oxo-4-thiophen-2-yl-1,6-dihydro-pyrimidin-2-ylsulfanylmethyl)-benzamide]	0.1 to 1 µM
N#Cc1cnc(SCc2cccc(CC(=O)O)c2)nc1-c1cccs1 [I-8, [3-(5-Cyano-6-thiophen-2-yl-pyrimidin-2-ylsulfanylmethyl)-phenyl]-acetic acid]	0.1 to 1 µM
N#Cc1c(Cc2ccccc2)nc(SCc2cc(F)c(O)c(F)c2)[nH]c1=O [I-41, 4-Benzyl-2-(3,5-difluoro-4-hydroxy-benzylsulfanyl)-6-oxo-1,6-dihydro-pyrimidine-5-carbonitrile]	1 to 10 µM
N#Cc1c(Br)nc(SCc2cccc(CC(=O)O)c2)nc1-c1cccs1 [I-5, [3-(4-Bromo-5-cyano-6-thiophen-2-yl-pyrimidin-2-ylsulfanylmethyl)-phenyl]-acetic acid]	0.1 to 1 µM
Cn1nnc(-c2cccc(CSc3nc(-c4cccs4)c(C#N)c(=O)[nH]3)c2)n1 [I-14, 2-[3-(2-Methyl-2H-tetrazol-5-yl)-benzylsulfanyl]-6-oxo-4-thiophen-2-yl-1,6-dihydro-pyrimidine-5-carbonitrile]	1 to 10 µM
N#Cc1c(-c2cccs2)nc(SCc2cccc(CCO)c2)[nH]c1=O [I-12, 2-[3-(2-Hydroxy-ethyl)-benzylsulfanyl]-6-oxo-4-thiophen-2-yl-1,6-dihydropyrimidine-5-carbonitrile]	1 to 10 µM
N#Cc1c(-c2cccs2)nc(N[C@H]2CC[C@H](C(=O)O)CC2)[nH]c1=O [I-46]	> 10 µM
N#Cc1c(-c2cccs2)nc(SCc2cccc(-c3nn[nH]n3)c2)[nH]c1=O [I-43]	< 0.1 µM
N#Cc1c(Cc2ccccc2)nc(SCc2cccc(-c3nnn[nH]3)c2)[nH]c1=O [I-34, 4-Benzyl-6-oxo-2-[3-(1H-tetrazol-5-yl)-benzylsulfanyl]-1,6-dihydro-pyrimidine-5 carbonitrile]	< 0.1 µM
N#Cc1c(Cc2ccccc2)nc(SCc2cccc(CC(=O)O)c2)[nH]c1=O [I-33, [3-(4-Benzyl-5-cyano-6-oxo-1,6-dihydro-pyrimidin-2-ylsulfanylmethyl)-phenyl]-acetic acid]	< 0.1 µM
N#Cc1c(SCc2cccc(-c3nnn[nH]3)c2)[nH]c(=O)c(C#N)c1-c1cccs1 [I-22, 2-Oxo-6-[3-(1H-tetrazol-5-yl)-benzylsulfanyl]-4-thiophen-2-yl-1,2-dihydro-pyridine-3,5-dicarbonitrile]	< 0.1 µM
N#Cc1c(NC2CC2)nc(SCc2cccc(CC(=O)O)c2)nc1-c1cccs1 [I-6, [3-(5-Cyano-4-cyclopropylamino-6-thiophen-2-yl-pyrimidin-2-ylsulfanylmethyl)-phenyl]-acetic acid]	1 to 10 µM
CCOC(=O)Cc1cccc(CSc2nc(=O)c(C#N)c(-c3cccs3)n2C)c1 [I-17, [3-(5-Cyano-1-methyl-4-oxo-6-thiophen-2-yl-1,4-dihydro-pyrimidin-2-ylsulfanylmethyl)-phenyl]-acetic acid ethyl ester]	> 10 µM
COc1nc(SCc2cccc(CC(=O)O)c2)nc(-c2cccs2)c1C#N [I-4, [3-(5-Cyano-4-methoxy-6-thiophen-2-yl-pyrimidin-2-ylsulfanylmethyl)-phenyl]-acetic acid]	1 to 10 µM

SMILES	IC50
N#Cc1c(-c2ccccc2)cc(=O)[nH]c1SCc1cccc(CC(=O)O)c1 [I-19, [3-(3-Cyano-6-oxo-4-phenyl-1,6-dihydro-pyridin-2-ylsulfanylmethyl)-phenyl]-acetic acid]	< 0.1 µM
CNc1nc(SCc2cccc(C(=O)O)c2)nc(-c2cccs2)c1C#N [I-10, 3-(5-Cyano-4-methylamino-6-thiophen-2-yl-pyrimidin-2-ylsulfanylmethyl)-benzoic acid]	1 to 10 µM
N#Cc1c(-c2cccs2)nc(SCc2cccc(CC(=O)O)c2)nc1N1CCOCC1 [I-15, [3-(5-Cyano-4-morpholin-4-yl-6-thiophen-2-yl-pyrimidin-2-ylsulfanylmethyl)-phenyl]-acetic acid]	1 to 10 µM
O=C(O)CSc1nc(C(F)(F)F)cc(=O)[nH]1 [I-27, (6-Oxo-4-trifluoromethyl-1,6-dihydro-pyrimidin-2-ylsulfanyl)-acetic acid]	0.1 to 1 µM
N#Cc1c(-c2cccs2)nc(NCc2cccc(C(=O)O)c2)[nH]c1=O [I-48]	1 to 10 µM
N#Cc1c(-c2cccs2)nc(SCc2cccc(-c3cc(F)c(O)c(F)c3)c2)[nH]c1=O [I-3, 2-({[3-(3,5-difluoro-4-hydroxyphenyl)phenyl]methyl}sulfanyl)-6-oxo-4-(thiophen-2-yl)-1,6-dihydropyrimidine-5-carbonitrile]	< 0.1 µM
N#Cc1c(-c2cccs2)nc(NCc2cccc(CC(=O)O)c2)[nH]c1=O [I-50]	1 to 10 µM
N#Cc1c(C(F)(F)F)cc(=O)[nH]c1SCc1cccc(CC(=O)O)c1 [I-36, [3-(3-cyano-6-oxo-4-trifluoromethyl-1,6-dihydro-pyridin-2-ylsulfanylmethyl)-phenyl]-acetic acid]	0.1 to 1 µM
N#Cc1c(Cc2ccccc2)nc(SCc2cccc(C(=O)O)c2)[nH]c1=O [I-35, 3-(4-Benzyl-5-cyano-6-oxo-1,6-dihydro-pyrimidin-2-ylsulfanylmethyl)-benzoic acid]	0.1 to 1 µM
O=C(O)c1cccc(CSc2nc(C(F)(F)F)cc(=O)[nH]2)c1 [I-31, 3-(6-Oxo-4-trifluoromethyl-1,6-dihydro-pyrimidin-2-ylsulfanylmethyl)-benzoic acid]	1 to 10 µM
N#Cc1c(-c2cccs2)nc(SCC(=O)O)[nH]c1=O [I-24, (5-Cyano-6-oxo-4-thiophen-2-yl-1,6-dihydro-pyrimidin-2-ylsulfanyl)-acetic acid]	1 to 10 µM
N#Cc1c(-c2cccs2)nc(NCc2ccc(-c3nnn[nH]3)cc2)[nH]c1=O [I-51]	0.1 to 1 µM
O=C(O)Cc1cccc(CSc2nc(C(F)(F)F)cc(=O)[nH]2)c1 [I-28, [3-(6-Oxo-4-trifluoromethyl-1,6-dihydro-pyrimidin-2-ylsulfanylmethyl)-phenyl]-acetic acid]	0.1 to 1 µM
N#Cc1c(-c2cccs2)nc(NCc2cccc(Cc3nnn[nH]3)c2)[nH]c1=O [I-49]	< 0.1 µM
N#Cc1c(-c2cccs2)nc(SCCC(=O)O)[nH]c1=O [I-37]	1 to 10 µM
N#Cc1c(Cc2ccccc2)nc(SCC(=O)O)[nH]c1=O [I-30, (4-Benzyl-5-cyano-6-oxo-1,6-dihydro-pyrimidin-2-ylsulfanyl)-acetic acid]	0.1 to 1 µM
N#Cc1c(Cc2ccccc2)cc(=O)[nH]c1SCc1cccc(CC(=O)O)c1 [I-23, [3-(4-Benzyl-3-cyano-6-oxo-1,6-dihydro-pyridin-2-ylsulfanylmethyl)-phenyl]-acetic acid]	1 to 10 µM
N#Cc1c(-c2cccs2)nc(SCc2nnn[nH]2)[nH]c1=O [I-25, 6-Oxo-2-(1H-tetrazol-5-ylmethylsulfanyl)-4-thiophen-2-yl-1,6-dihydro-pyrimidine-5-carbonitrile]	< 0.1 µM
N#Cc1cccc(CSc2nc(-c3cccs3)c(C#N)c(=O)[nH]2)c1 [I-11, 2-(3-Cyano-benzylsulfanyl)-6-oxo-4-thiophen-2-yl-1,6-dihydro-pyrimidine-5-carbonitrile]	1 to 10 µM
N#Cc1c(Cc2ccccc2)nc(SCc2nnn[nH]2)[nH]c1=O [I-32]	< 0.1 µM
